“Also recorded” adds a separate entry of the source. Where a name gives a salt, the structure may show the parent alone. Read-outs that look alike come from different tables or passages of the source.
Legend:
[1] = tested on: SUP-T1 cells; experiment: In vitro cell proliferation assay, monotherapy (CellTiter-Glo); type: cell-based; details: Homo sapiens
Method: (§1) On day 1, cells were seeded in 96-well cell culture plates (at 180 μL/well).
(§2) On day 2, 20 μL of a 10-fold test concentration of the working solution of the compound (AST-3424) was added. The cell plates were gently agitated, and were then placed in an incubator at 37 °C for further culture.
(§3) On day 3, 20 μL of a 10-fold test concentration of the solution of the compound (cytarabine and daunorubicin) was added. The cell plates were gently agitated, and were then placed in an incubator at 37 °C for further 72 hours.
(§4) After incubation, to the cell plates was added a reagent prepared according to the Protocol for a […] CellTiter-Glo Reagent (50 μL/well). The plates were thoroughly agitated and were then incubated at room temperature in the dark for 10 minutes.
(§5) The cell plates were placed in a plate reader for analysis to detect chemiluminescence and record the data.
(§6) The readings in each well should be converted into cell viability, which was calculated by the following formula:
(§7) • 1. MOLT-4 and MOLT-3 were derived from a patient with acute lymphoblastic leukemia in relapse who had previously received polydrug combination chemotherapy. The MOLT-4 cell line was originated from T lymphocytes, wherein there is a G→A mutation in Codon 248 of the p53 gene with no expression of p53, immunoglobulin or Epstein-Barr virus, resulting in high levels of terminal deoxyribosyl transferase, and expression of CD1 (49%), CD2 (35%), CD3 A (26%) B (33%) C (34%), CD4 (55%), CD5 (72%), CD6 (22%), and CD7 (77%). The cell is a human acute lymphoblastic leukemia cell, and the corresponding disease is human T-cell acute lymphoblastic leukemia, or T-ALL. • 2. PF-382 is a human T-cell acute lymphoblastic leukemia cell, and the corresponding disease is human T-cell acute lymphoblastic leukemia, or T-ALL. • 3. Jurkat, Clone E6-1 is a clone of the Jurkat-FHCRC cell line, a derivative of the Jurkat cell line, which was established from the peripheral blood of a patient suffering from T-cell acute leukemia. It is a human T lymphocytic leukemia cell, and the corresponding disease is T-ALL. • 4. SUP-T1 is a human T lymphoblastoma cell, and the corresponding disease is T-cell Lymphoblastic Lymphoma (T-LBL). • 5. CCRF-CEM is a human acute lymphoblastic leukemia, T lymphocyte serum culture cell, which was obtained in November 1964 from the peripheral blood leukocytes of a patient suffering from acute lymphoblastic leukemia. The cell is a human T-cell acute lymphoblastic leukemia cell, and the corresponding disease is T-cell acute lymphoblastic leukemia, or T-ALL.

[2] = tested on: Jurkat, Clone E6-1 cells; experiment: as above; type: cell-based; details: Homo sapiens
Method: as §1, §2, §3, §4, §5, §6, §7

[3] = tested on: CCRF-CEM cells; experiment: as above; type: cell-based; details: Homo sapiens
Method: as §1, §2, §3, §4, §5, §6, §7

[4] = tested on: MOLT-4 cells; experiment: as above; type: cell-based; details: Homo sapiens
Method: as §1, §2, §3, §4, §5, §6, §7

[5] = tested on: PF-382 cells; experiment: as above; type: cell-based; details: Homo sapiens
Method: as §1, §2, §3, §4, §5, §6, §7

[6] = tested on: SUP-T1 cells; experiment: In vitro cell proliferation assay, combination therapy (CellTiter-Glo); type: cell-based, human; details: 0.13 nM and 1 nM AST-3424
Method: as §1
(§8) On day 2, 10 μL of a 20-fold test concentration of the AST-3424 solution (20-fold concentration of either of the two concentrations IC25 and IC10) was added. The cell plates were gently agitated, and were then placed in an incubator at 37 °C for further culture.
(§9) On day 3, to the combination therapy wells was added 10 μL of a 20-fold test concentration of the compound (cytarabine or daunorubicin) (20-fold concentration of each of the three concentrations IC50, IC25, and ICs), and to the monotherapy wells was added 10 μL of a culture medium containing 2% DMSO. The cell plates were gently agitated, and were then placed in an incubator at 37 °C for further 72 h.
(§10) After incubation, a reagent prepared according to the instructions for the CellTiter-Glo Reagent was added (at 50 μL/well). The cell plates were agitated thoroughly and were then incubated at room temperature in the dark for 10 minutes.
(§11) The cell plate was placed in a plate reader for analysis to detect chemiluminescence and record the data.
(§12) The readings in each well should be converted into cell viability, which was calculated by the formula as described in section 1.1.
(§13) The final viability percentages under different conditions were plotted into column charts.

[7] = tested on: Jurkat, Clone E6-1 cells; experiment: as above; type: cell-based, human; details: 0.64 nM and 16 nM AST-3424
Method: as §1, §8, §9, §10, §11, §12, §13

[8] = tested on: CCRF-CEM cells; experiment: as above; type: cell-based, human; details: 0.1 nM and 1 nM AST-3424
Method: as §1, §8, §9, §10, §11, §12, §13

[9] = tested on: MOLT-4 cells; experiment: as above; type: cell-based, human
Method: as §1, §8, §9, §10, §11, §12, §13

[10] = tested on: PF-382 cells; experiment: as above; type: cell-based, human; details: 0.64 and 2.5 nM AST-3424
Method: as §1, §8, §9, §10, §11, §12, §13

[11] = tested on: PLC/PRF/5; details: PLC/PRF/5, high AKR1C3 expression; cited from earlier work
[12] = tested on: tumor cells; details: Transwell; MMP-9; cited from earlier work
[13] = tested on: TGF-β signaling pathway; details: cited from earlier work
[14] = tested on: HepG2; details: HepG2, high AKR1C3 expression; cited from earlier work
[15] = tested on: liver cancer cells; details: flow cytometry; cited from earlier work
[16] = tested on: liver cancer cells; details: flow cytometry; Bax, Caspase3, PARP; cited from earlier work
[17] = tested on: five cell lines including CCRF-CEM, PF-382, Jurkat, Clone E6-1, SUP-T1, and MOLT-4; experiment: In vitro cell proliferation assay, monotherapy, summary over five cell lines; type: cell-based, human; details: for inhibitory effects on cell proliferation: monotherapy, five cell lines
Method: as §1, §2, §3, §4, §5, §6, §7

[18] = tested on: cancer cells; details: cited from earlier work
[19] = cited from earlier work
[20] = Clinical plasma concentration (dose comparison and conversion); type: in vivo
Text: Both daunorubicin and cytarabine are drugs used in clinical practice to treat leukemia or other tumors.

[21] = tested on: acute lymphoblastic leukemia; details: cited from earlier work
[22] = tested on: neuroblastoma and rhabdomyosarcoma; details: cited from earlier work
[23] = monotherapy, 72 hours, read-out: IC50
[24] = experiments that were conducted previously, read-out: IC50 (superscript 2)

For `COc1cccc2c1C(=O)c1c(O)c3c(c(O)c1C2=O)C[C@@](O)(C(C)=O)C[C@@H]3O[C@H]1C[C@H](N)[C@H](O)[C@H](C)O1` [Daunorubicin hydrochloride, daunorubicin hydrochloride, reference compound], the IC50 [1, 23] was 30.6 nM, the IC50 [2, 23] was 41 nM and the IC50 [3, 23] was 30.7 nM. It also gave an IC50 [4, 23] of 24.2 nM and an IC50 [5, 23] of 14.2 nM.
In the case of `C[C@H](OP(=O)(N1CC1)N1CC1)c1ccc([N+](=O)[O-])c(Oc2cccc(C(=O)N(C)C)c2)c1` [AST-3424], the “effect on proliferation, AST-3424 monotherapy” value (“effect on proliferation” for short) [6] is reported as “no effect”, the “effect on proliferation” value [7] is reported as “no significant effect” and the “effect on proliferation” value [8] is reported as “no effect”. For the same compound, the “effect on proliferation” value ([9]; 3.2 nM and 6.4 nM AST-3424) was “no significant effect”, the “effect on proliferation” value [10] was “no significant effect” and the IC50 [1, 24] was 3.7 nM. For the same compound, the IC50 [1, 23] was 2.47 nM, the IC50 [2, 24] was 24 nM and the IC50 [2, 23] was 4620 nM. It also gave an IC50 [3, 24] of 14.9 nM, an IC50 [3, 23] of 3.68 nM and an IC50 [4, 24] of 10 nM. It also gave an IC50 [4, 23] of 8.04 nM, an IC50 [5, 24] of 3 nM and an IC50 [5, 23] of 4.09 nM. The inhibitory effects [11] was “excellent inhibitory effects”, the “migration and invasion of tumor cells” value [12] was “could inhibit the migration and invasion of tumor cells” and the “effect on TGF-β signaling pathway / proliferation” value [13] was “could reduce the proliferation effect by inhibiting the TGF-β signaling pathway”. For the same compound, the inhibitory effects [14] was “excellent inhibitory effects”, the cell cycle block [15] was “could block the cells in the S phase” and the apoptosis induction [16] was “may induce apoptosis by upregulating Bax and Caspase3 proteins and downregulating the PARP protein”. For the same compound, the “in vitro cytotoxicity compared with daunorubicin and cytarabine” value ([17]; four cell lines except Jurkat, Clone E6-1) was “superior to that of daunorubicin and cytarabine”, the “inhibitory effects on cell proliferation” value [17] was “good inhibitory effects” and the “toxicity to cancer cells” value ([18]; AST-3424 itself (prodrug)) was “low toxicity to cancer cells”. The “dependence of potency on AKR1C3 expression level” value ([18]; animal models and in vitro pharmacological experiments) was “dependent on the level of AKR1C3 expression; also recorded: positively correlated with AKR1C3 expression levels”.
For `Nc1ccn([C@@H]2O[C@H](CO)[C@@H](O)[C@@H]2O)c(=O)n1` [Cytarabine, cytarabine, reference compound], the Steady plasma concentration ([19]; 1.8-3 g/m^2, administration with 12 times, steady concentration) is listed as 8 to 24 µg/mL, the IC50 [1, 23] is listed as 856 nM and the IC50 [2, 23] is listed as 100 nM. The IC50 [3, 23] was 82.2 nM, the IC50 [4, 23] was 120 nM and the IC50 [5, 23] was 26.4 nM. The concentration ([20]; 1.8-3 g/m^2, administration with 12 times, converted from steady concentration, read-out: Molar concentration after conversion (steady concentration)) was 32 to 97 µM and the “inhibitory effects on cell proliferation” value [17] was “good inhibitory effects”.
For `COc1cccc2c1C(=O)c1c(O)c3c(c(O)c1C2=O)C[C@@](O)(C(C)=O)C[C@@H]3O[C@H]1C[C@H](N)[C@H](O)[C@H](C)O1` [daunorubicin], the “potency on cell proliferation, daunorubicin” value ([9]; 40 nM daunorubicin) is given as “very significant potency”, the “Plasma Cmax” value ([19]; 44 mg/m^2, administration on day 1, 3, 5, Cmax) is given as 26000 ng/mL and the remission rate ([21]; acute lymphoblastic leukemia) is given as “high remission rate”. The side effects ([21]; clinical use) was “severe side effects”, the therapeutic effects [22] was “excellent therapeutic effects” and the Cmax ([20]; human, plasma, 44 mg/m^2, administration on day 1, 3, 5, converted from Cmax, read-out: Molar concentration after conversion (Cmax)) was 49 µM. For the same compound, the “inhibitory effects on cell proliferation” value [17] was “good inhibitory effects”.

Reference: US20260345647A1, “AST-3424 COMBINATION FOR TREATING LEUKEMIA AND LYMPHOMA” (ASCENTAWITS PHARMACEUTICALS, LTD., priority 2022, published 2026)
